Data: PubChem BioAssay AID1963449 (Molecular Pharmacology Branch, DTP, NCI, 2024)

Test system: 596521-263-R-J1-PDC complex spheroid growth
Assay: Anticancer human tumor 596521-263-R-J1-PDC patient-derived soft tissue sarcoma cell line growth inhibition [Asc]
Details: for IC50: curve of first compound; for viability, T/C: stronger effect = lower value
Method: Multicellular complex tumor spheroid response to apoptosis pathway targeting inhibitors Alrizomadlin, Pelcitoclax, and Dasminapant in combination with a variety of drugs and investigational agents in selected tumor cell lines
The MDM2 inhibitor alrizomadlin, the Bcl-2/Bcl-xL inhibitor pelcitoclax, and the IAPs inhibitor dasminapant were evaluated both individually and in combination with standard of care and investigational anticancer small molecules within a complex spheroid model of solid tumors. . Complex spheroids include a stromal component modeled by human endothelial cells (HUVEC) and fibroblasts modeled by human mesenchymal stem cells (MSCs). The concentration ranges selected for each drug and investigational agent were based upon clinically achievable concentrations if the clinical Cmax of the agent was known.
Compounds. The drugs and investigational agents: alrizomadlin (APG-115; NSC831270), pelcitoclax (APG-1252; NSC835773), dasminapant (APG-1387;NSC834197), TAK-243 (NSC785004), copanlisib (NSC809693), olaparib (NSC753686), talazoparib (NSC767125), cobimetinib (NSC 768068), eltanexor (KPT-8602, NSC 794443), abemaciclib (NSC 768073), sotorasib (NSC818433), adagrasib (NSC 831453), MRTX-1133 (NSC 836407), Iadademestat (ORY1001, NSC 806812), and RMC-4630 (NSC839698), were obtained from the NCI Developmental Therapeutics Program Chemical Repository. The FDA-approved anticancer drug set is available from the Developmental Therapeutics Program at https://dtp.cancer.gov/organization/dscb/obtaining/available plates.htm. […] The stock solutions were prepared in dimethyl sulfoxide (DMSO, Sigma-Aldrich, St. Louis, MO, cat. D2650) at 800-fold the tested concentration and stored at -70 degrees C prior to their use. All drugs and investigational agents were tested over a range starting from a high concentration at or near the clinical Cmax and decreasing in half-log increments. If the clinical Cmax for an agent had not been determined, the highest concentration tested was 10 microM.
The patient-derived cancer (PDC) cell lines include five colon adenocarcinomas: 186277-243-T-J2-PDC, 616215-338-R-J1-PDC, 439559-082-T-J2-PDC, 463943-066-T-J2-PDC, and 519858-162-T-J1-PDC; three pancreatic carcinomas: 323965-272-R-J2-PDC, 521955-158-R6-J3-PDC, and 521955-158-R2-J5-PDC; two uterine sarcomas: 327498-152-R-J2-PDC and 993429-296-R-J1-PDC; two rhabdomyosarcomas: 755483-174-R-J1-PDC and 772245-204-R-J1-PDC; two soft tissue sarcomas: 126254-015-R-J1-PDC and 494315-158-R-J1-PDC; two malignant fibrous histiocytomas: 317291-083-R-J1-PDC and 596521-263-R-J1-PDC; two breast carcinomas: 171881-019-R-J1-PDC and 885512-296-R-J2-PDC; and one ovarian carcinoma: 6556581-035-R-J-PDC were obtained from the NCI PDMR, (https://pdmr.cancer.gov). The established cell lines HSSY-2 synovial sarcoma (RRID:CVCL 8719), SYO-1 synovial sarcoma (RRID:CVCL_7146), MPNST malignant peripheral neural sheath tumor were obtained from the Sloan Kettering Institute. The following established cell lines were purchased from the American Type Culture Collection (ATCC, Manassas, VA), Sor the received from the NCI repository:, PANC-1 pancreatic carcinoma (CRL-1469, RRID:CVCL_0480), OVCAR-5 ovarian carcinoma (RRID:CVCL_1628), OVCAR-8 ovarian carcinoma (RRID:CVCL_1629), , MCF-7 breast carcinoma (CRL-12584, RRID:CVCL_0031), MDA-MB-231 breast carcinoma (CRL-12532, RRID:CVCL_0062), NCI-H1876 small cell lung carcinoma (CRL-5902, RRID:CVCL_1503), NCI-H510A small cell lung carcinoma (HTB-184, RRID:CVCL_1565), NCI-H1417 (CRL-5869, RRID:CVCL_1469), and NCI-H196 small cell lung carcinoma (CRL-5823, RRID:CVCL_1509). Dr. Peter Houghton (Greehey Children's Cancer Research Institute, University of Texas Health Science Center, San Antonio, TX) provided Rh-18 rhabdomyosarcoma (RRID:CVCL_1659). Pooled donor human umbilical vein endothelial cells (HUVEC, Lonza, cat. CC-2519) and human mesenchymal stem cells (hMSC, Lonza, cat. PT-2501) were purchased from Lonza (Walkersville, MD).
Cell Culture. […]

[1] = second compound 0.0316 µM, first compound 0.0316 µM
[2] = second compound 0.0316 µM, first compound 0.1 µM
[3] = second compound 0.0316 µM, first compound 0.316 µM
[4] = second compound 0.0316 µM, first compound 1 µM
[5] = second compound 0.0316 µM, first compound 3.16 µM
[6] = second compound 0.0316 µM, first compound 10 µM
[7] = second compound 0.1 µM, first compound 0.0316 µM
[8] = second compound 0.1 µM, first compound 0.1 µM
[9] = second compound 0.1 µM, first compound 0.316 µM
[10] = second compound 0.1 µM, first compound 1 µM
[11] = second compound 0.1 µM, first compound 3.16 µM
[12] = second compound 0.1 µM, first compound 10 µM
[13] = second compound 0.316 µM, first compound 0.0316 µM
[14] = second compound 0.316 µM, first compound 0.1 µM
[15] = second compound 0.316 µM, first compound 0.316 µM
[16] = second compound 0.316 µM, first compound 1 µM
[17] = second compound 0.316 µM, first compound 3.16 µM
[18] = second compound 0.316 µM, first compound 10 µM
[19] = second compound 1 µM, first compound 0.0316 µM
[20] = second compound 1 µM, first compound 0.1 µM
[21] = second compound 1 µM, first compound 0.316 µM
[22] = second compound 1 µM, first compound 1 µM
[23] = second compound 1 µM, first compound 3.16 µM
[24] = second compound 1 µM, first compound 10 µM
[25] = second compound 3.16 µM, first compound 0.0316 µM
[26] = second compound 3.16 µM, first compound 0.1 µM
[27] = second compound 3.16 µM, first compound 0.316 µM
[28] = second compound 3.16 µM, first compound 1 µM
[29] = second compound 3.16 µM, first compound 3.16 µM
[30] = second compound 3.16 µM, first compound 10 µM
[31] = second compound 10 µM, first compound 0.0316 µM
[32] = second compound 10 µM, first compound 0.1 µM
[33] = second compound 10 µM, first compound 0.316 µM
[34] = second compound 10 µM, first compound 1 µM
[35] = second compound 10 µM, first compound 3.16 µM
[36] = second compound 10 µM, first compound 10 µM
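Also: spheroids exposed to compounds for 7 days.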

## C#Cc1c(F)ccc2cc(O)cc(-c3ncc4c(N5CC6CCC(C5)N6)nc(OCC56CCCN5CC(F)C6)nc4c3F)c12 (centres undefined) + Cc1c(S(C)(=O)=O)c(-c2cc(F)cc(N3CCN(c4ccc(NS(=O)(=O)c5ccc(NC(CCN6CCC(C(=O)OCCCP(=O)(O)O)CC6)CSc6ccccc6)c(S(=O)(=O)C(F)(F)F)c5)cc4)CC3)c2)c(-c2ccc(Cl)cc2)n1C(C)C
Second compound 0.0316 µM
  IC50: > 10 µM
Second compound 0.1 µM
  IC50: > 10 µM
Second compound 0.316 µM
  IC50: > 10 µM
Second compound 1 µM
  IC50: > 10 µM
Second compound 3.16 µM
  IC50: > 10 µM
Second compound 10 µM
  IC50: 1.68 µM
[1]
  viability, T/C: 84.7%
[2]
  viability, T/C: 89.1%
[3]
  viability, T/C: 91%
[4]
  viability, T/C: 98.1%
[5]
  viability, T/C: 111%
[6]
  viability, T/C: 85.7%
[7]
  viability, T/C: 85.9%
[8]
  viability, T/C: 107%
[9]
  viability, T/C: 107%
[10]
  viability, T/C: 95.5%
[11]
  viability, T/C: 95.6%
[12]
  viability, T/C: 87.8%
[13]
  viability, T/C: 82.2%
[14]
  viability, T/C: 81.8%
[15]
  viability, T/C: 76.9%
[16]
  viability, T/C: 83.6%
[17]
  viability, T/C: 100%
[18]
  viability, T/C: 68.4%
[19]
  viability, T/C: 83.7%
[20]
  viability, T/C: 84.2%
[21]
  viability, T/C: 79.1%
[22]
  viability, T/C: 83.4%
[23]
  viability, T/C: 69.3%
[24]
  viability, T/C: 60.5%
[25]
  viability, T/C: 59.4%
[26]
  viability, T/C: 65.3%
[27]
  viability, T/C: 61%
[28]
  viability, T/C: 57.1%
[29]
  viability, T/C: 60.4%
[30]
  viability, T/C: 42.6%
[31]
  viability, T/C: 48.1%
[32]
  viability, T/C: 47.8%
[33]
  viability, T/C: 55.1%
[34]
  viability, T/C: 60.7%
[35]
  viability, T/C: 43.7%
[36]
  viability, T/C: 37.2%

## C=CC(=O)N1CCN(c2nc(=O)n(-c3c(C)ccnc3C(C)C)c3nc(-c4c(O)cccc4F)c(F)cc23)C(C)C1 (centres undefined) + Cc1c(S(C)(=O)=O)c(-c2cc(F)cc(N3CCN(c4ccc(NS(=O)(=O)c5ccc(NC(CCN6CCC(C(=O)OCCCP(=O)(O)O)CC6)CSc6ccccc6)c(S(=O)(=O)C(F)(F)F)c5)cc4)CC3)c2)c(-c2ccc(Cl)cc2)n1C(C)C
Second compound 0.0316 µM
  IC50: > 10 µM
Second compound 0.1 µM
  IC50: > 10 µM
Second compound 0.316 µM
  IC50: > 10 µM
Second compound 1 µM
  IC50: 6.36 µM
Second compound 3.16 µM
  IC50: 2.98 µM
Second compound 10 µM
  IC50: 1.35 µM
[1]
  viability, T/C: 83.2%
[2]
  viability, T/C: 84.6%
[3]
  viability, T/C: 95%
[4]
  viability, T/C: 98.9%
[5]
  viability, T/C: 94.9%
[6]
  viability, T/C: 65.8%
[7]
  viability, T/C: 87.3%
[8]
  viability, T/C: 93.9%
[9]
  viability, T/C: 93.6%
[10]
  viability, T/C: 107%
[11]
  viability, T/C: 95.8%
[12]
  viability, T/C: 63%
[13]
  viability, T/C: 83.7%
[14]
  viability, T/C: 82.5%
[15]
  viability, T/C: 80.1%
[16]
  viability, T/C: 99.9%
[17]
  viability, T/C: 87.1%
[18]
  viability, T/C: 59.9%
[19]
  viability, T/C: 82.3%
[20]
  viability, T/C: 75.9%
[21]
  viability, T/C: 81%
[22]
  viability, T/C: 73.5%
[23]
  viability, T/C: 70.5%
[24]
  viability, T/C: 37.1%
[25]
  viability, T/C: 66.6%
[26]
  viability, T/C: 63%
[27]
  viability, T/C: 62.6%
[28]
  viability, T/C: 63.4%
[29]
  viability, T/C: 49.3%
[30]
  viability, T/C: 36%
[31]
  viability, T/C: 55.9%
[32]
  viability, T/C: 53%
[33]
  viability, T/C: 60.1%
[34]
  viability, T/C: 52.4%
[35]
  viability, T/C: 40.8%
[36]
  viability, T/C: 30.6%
